Columns and labels:
MMP-13 = MMP-13 (Homo sapiens, UniProt P45452); assay: MMP-13 inhibition (thiopeptide or fluorescent peptide substrate); assay type: biochemical; conditions: read-out: MMP13; for inhibition at 10 µM: % @ 10µM per footnote a
Excerpt: Alternatively, a fluorescent peptide substrate is used.

[1] = target: TNF-α converting enzyme (TACE) (Homo sapiens, UniProt P78536); assay: Test procedure for measuring TACE inhibition (fluorescent peptidyl substrate); assay type: biochemical
MMP-1 = target: T1, MMP-1 (Homo sapiens, UniProt P03956); assay: MMP-1 inhibition (thiopeptide or fluorescent peptide substrate); conditions: for inhibition at 10 µM: read-out: MMP1
T1 sequence (P03956 100-469): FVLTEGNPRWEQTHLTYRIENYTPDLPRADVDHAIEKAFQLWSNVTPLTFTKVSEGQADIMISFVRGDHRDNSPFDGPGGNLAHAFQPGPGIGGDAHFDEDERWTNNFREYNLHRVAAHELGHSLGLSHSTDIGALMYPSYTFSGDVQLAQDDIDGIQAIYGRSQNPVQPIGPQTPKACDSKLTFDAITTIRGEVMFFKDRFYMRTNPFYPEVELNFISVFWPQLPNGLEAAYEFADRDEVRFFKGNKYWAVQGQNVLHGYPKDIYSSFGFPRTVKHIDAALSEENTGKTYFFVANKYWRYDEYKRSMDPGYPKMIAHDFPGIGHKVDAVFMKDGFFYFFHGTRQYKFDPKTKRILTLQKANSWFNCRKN
Procedure: The enzyme activity is measured by the rate of the color increase. The thiopeptide substrate is made up fresh as a 20 mM stock in 100% DMSO and the DTNB is dissolved in 100% DMSO as a 100 mM stock and stored in the dark at room temperature. Both the substrate and DTNB are diluted together to 1 mM with substrate buffer (50 mM HEPES pH 7.5, 5 mM CaCl2) before use. The stock of enzyme is diluted with buffer (50 mM HEPES, pH 7.5, 5 mM CaCl2, 0.02% Brij) to the desired final concentration.
Alternatively, a fluorescent peptide substrate is used. In this test procedure, the peptide substrate contains a fluorescent group and a quenching group. Upon cleavage of the substrate by an MMP, the fluorescence that is generated is quantitated on the fluorescence plate reader. The assay is run in HCBC assay buffer (50mM HEPES, pH 7.0, 5 mM Ca^+2, 0.02% Brij, 0.5% Cysteine), with human recombinant MMP-1, MMP-9, or MMP-13. The substrate is dissolved in methanol and stored frozen in 1 mM aliquots. For the assay, substrate and enzymes are diluted in HCBC buffer to the desired concentrations. Compounds are added to the 96 well plate containing enzyme and the reaction is started by the addition of substrate.
For either the thiopeptide or fluorescent peptide test procedures, the slope of the line is calculated and represents the reaction rate. […] The mean (x±sem) of the control rate is calculated and compared for statistical significance (p<0.05) with drug-treated rates using Dunnett's multiple comparison test.

[2] = second table, IC50 (nM) per footnote a

TNF-α converting enzyme (TACE), sequence (P78536 215-824): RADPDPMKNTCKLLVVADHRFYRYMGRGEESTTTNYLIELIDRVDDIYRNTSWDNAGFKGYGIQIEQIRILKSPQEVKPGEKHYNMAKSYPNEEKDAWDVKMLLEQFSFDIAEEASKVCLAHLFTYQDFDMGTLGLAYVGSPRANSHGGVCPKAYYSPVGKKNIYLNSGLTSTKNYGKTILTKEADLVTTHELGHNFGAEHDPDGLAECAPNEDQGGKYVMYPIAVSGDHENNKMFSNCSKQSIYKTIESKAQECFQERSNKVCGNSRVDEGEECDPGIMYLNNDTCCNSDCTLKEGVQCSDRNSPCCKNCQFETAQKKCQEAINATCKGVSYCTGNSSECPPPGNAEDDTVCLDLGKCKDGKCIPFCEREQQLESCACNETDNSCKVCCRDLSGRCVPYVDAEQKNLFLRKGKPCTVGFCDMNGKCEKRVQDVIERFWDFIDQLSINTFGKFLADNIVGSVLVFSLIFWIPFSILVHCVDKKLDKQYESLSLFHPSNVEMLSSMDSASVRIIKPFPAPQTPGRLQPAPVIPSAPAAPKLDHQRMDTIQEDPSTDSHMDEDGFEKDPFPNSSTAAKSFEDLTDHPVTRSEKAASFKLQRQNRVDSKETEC

Row | Molecule | IC50 ([1]; Table 1) | IC50 (MMP-1) | further results
1 | CC#CCOc1ccc([S+]([O-])C(C(=O)NO)c2ccc(OCC)cc2)cc1 (stereo not shown) [Example 101, 2-{[4-(2-Butynyloxy)phenyl]sulfinyl}-N-hydroxy-2-(4-ethoxyphenyl) acetamide] |  |  | inhibition at 10 µM (MMP-13): 51%; IC50 [1, 2]: 76 nM; inhibition at 10 µM (MMP-1): 8%
2 | CC#CCOc1ccc([S+]([O-])C(CCCCNC(=O)CNC(=O)CCCc2cccs2)C(=O)NO)cc1 (stereo not shown) [Example 58] | 20.1 nM | 4.6 µM | 
3 | CC#CCOc1ccc([S+]([O-])C(CCCCNC(=O)C2c3ccccc3Oc3ccccc32)C(=O)NO)cc1 (stereo not shown) [Example 29, 9H-Xanthene-9-carboxylic acid [5-(4-but-2-ynyloxy-benzenesulfinyl)-5-hydroxycarbamoyl-pentyl]-amide] | 18.9 nM | 2 µM | 
4 | CC#CCOc1ccc(SC(C(=O)NO)c2ccc(OCC)cc2)cc1 (stereo not shown) [Example 100, 2-{[4-(2-butynyloxy)phenyl]sulfanyl}-N-hydroxy-2-(4-ethoxyphenyl) acetamide] |  |  | inhibition at 10 µM (MMP-13): 15%; IC50 [1, 2]: 100 nM; inhibition at 10 µM (MMP-1): 2%
5 | CC#CCOc1ccc(OCC(=O)NO)cc1 [Example 11, 2-(4-But-2-ynyloxy-phenoxy)-N-hydroxy-acetamide] |  | 10 µM | 
6 | CC#CCOc1ccc([S+]([O-])C(CCCCNC(=O)CNC(=O)c2ccccc2CCc2ccccc2)C(=O)NO)cc1 (stereo not shown) [Example 56] | 21.9 nM | 3.9 µM | 
7 | CC#CCOc1ccc([S+]([O-])[C@@H](C(=O)NO)c2ccc(Br)cc2)cc1 (single isomer, unassigned) [Example 87] |  |  | inhibition at 1 µM (MMP-13; % at 1 um (specified in cell)): 33%; IC50 [1, 2]: 336 nM; inhibition at 10 µM (MMP-1): 17%
8 | CC#CCOc1ccc([S+]([O-])C(CCCCNC(=O)c2ccc3ccccc3n2)C(=O)NO)cc1 (mixture of isomers) [Example 23, Quinoline-2-carboxylic acid [5-(4-but-2-ynyloxy-benzenesulfinyl)-5-hydroxycarbamoyl-pentyl]-amide] | 20.5 nM | 3.3 µM | 
9 | CC#CCOc1ccc([S+]([O-])C(CCCCNC(=O)CNC(=O)c2cccn2C)C(=O)NO)cc1 (stereo not shown) [Example 61, 1-Methyl-1H-pyrrole-2-carboxylic acid {[5-(4-but-2-ynyloxy-benzenesulfinyl)-5-hydroxycarbamoylpentyl-carbamoyl]-methyl}-amide] | 22.5 nM | 5.6 µM | 
10 | CC#CCOc1ccc(SC(CCCCNC(=O)CNC(=O)CN2C(=O)c3ccccc3C2=O)C(=O)NO)cc1 (stereo not shown) [Example 45, 2-(4-But-2-ynyloxy-phenylsulfanyl)-6-{2-[2-(1,3-dioxo-1,3-dihydro-isoindol-2-yl)-acetylamino]-acetylamino}-hexanoic acid hydroxyamide] | 16.1 nM |  | 
11 | CC#CCOc1ccc([S+]([O-])C(CCCCNC(=O)CNC(=O)C2c3ccccc3Oc3ccccc32)C(=O)NO)cc1 (stereo not shown) [Example 59] | 22.6 nM | 3.4 µM | 
12 | CC#CCOc1ccc(S(=O)(=O)C(CCCCNC(=O)CNC(=O)Cc2c[nH]c3ccccc23)C(=O)NO)cc1 (stereo not shown) [Example 70, 2-(4-But-2-ynyloxy-benzenesulfonyl)-6-[2-(2-1H-indol-3-yl-acetylamino)-acetylamino]-hexanoic acid hydroxyamide] | 88.1 nM |  | 
13 | CC#CCOc1ccc(SC(CCCCNC(=O)CNC(=O)c2cccn2C)C(=O)NO)cc1 (stereo not shown) [Example 51, 1-Methyl-1H-pyrrole-2-carboxylic acid ([5-(4-but-2-ynyloxy-phenylsulfanyl)-5-hydroxycarbamoyl-pentylcarbamoyl]-methyl}-amide] | 22.4 nM |  | 
14 | CC#CCOc1ccc([S+]([O-])C(CCCCNC(=O)Cc2csc3ccccc23)C(=O)NO)cc1 (stereo not shown) [Example 32, 6-(2-Benzo[b]thiophen-3-yl-acetylamino)-2-(4-but-2-ynyloxy-benzenesulfinyl)-hexanoic acid hydroxyamide] | 46.8 nM |  | 
15 | CC#CCOc1ccc(SC(CCCCNC(=O)c2cnc3ccccc3c2)C(=O)NO)cc1 (stereo not shown) [Example 17, Quinoline-3-carboxylic acid [5-(4-but-2-ynyloxy-phenylsulfanyl)-5-hydroxycarbamoylpentyl]-amide] | 43.7 nM |  | 
16 | CC#CCOc1ccc(S(=O)(=O)C(CCCCNC(=O)c2ccc3ccccc3n2)C(=O)NO)cc1 (stereo not shown) [Example 35, Quinoline-2-carboxylic acid [5-(4-but-2-ynyloxy-benzenesulfonyl)-5-hydroxycarbamoylpentyl]-amide] | 68.3 nM |  | 
17 | CC#CCOc1ccc(SC(CCCCNC(=O)CN2C(=O)c3ccccc3C2=O)C(=O)NO)cc1 (stereo not shown) [Example 13, 2-(4-But-2-ynyloxy-phenylsulfanyl)-6-[2-(1,3-dioxo-1,3-dihydroiso-indol-2-yl)-acetylamino]-hexanoic acid hydroxyamide] | 42.5 nM |  | 
18 | CC#CCOc1ccc(SC(CCCCNC(=O)CNC(=O)C2c3ccccc3Oc3ccccc32)C(=O)NO)cc1 (stereo not shown) [Example 48, 9H-Xanthene-9-carboxylic acid {[5-(4-but-2-ynyloxy-phenylsulfanyl)-5-hydroxycarbamoylpentylcarbamoyl]-methyl}-amide] | 82.1 nM |  | 
19 | CC#CCOc1ccc(SC(C(=O)NO)c2cccc(Br)c2)cc1 (stereo not shown) [Example 103, 2-{[4-(2-Butynyloxy)phenyl]sulfanyl}-N-hydroxy-2-(3-bromophenyl) acetamide] |  |  | inhibition at 10 µM (MMP-13): 12%; IC50 [1, 2]: 113 nM; inhibition at 10 µM (MMP-1): 4%
20 | CC#CCOc1ccc(SC(CCCCNC(=O)CNC(=O)c2ccccc2CCc2ccccc2)C(=O)NO)cc1 (stereo not shown) [Example 46] | 84.2 nM |  | 

Further lines, with some results ahead:

Row | IC50 ([1]; Table 1) | IC50 (MMP-1) | Molecule | further results
21 | 20.1 nM | 3.3 µM | CC#CCOc1ccc([S+]([O-])C(CCCCNC(=O)C(c2ccccc2)c2ccccc2)C(=O)NO)cc1 (stereo not shown) [Example 30, 2-(4-But-2-ynyloxy-benzenesulfinyl)-6-diphenylacetylamino-hexanoic acid hydroxyamide] | 
22 | 15.2 nM | 4 µM | CC#CCOc1ccc([S+]([O-])C(CCCCNC(=O)CNC(=O)c2cnc3ccccc3c2)C(=O)NO)cc1 (stereo not shown) [Example 53] | 
23 |  | 10 µM | CC#CCOc1ccc(CCCC(=O)NO)cc1 [Example 12, 4-(4-But-2-ynyloxy-phenyl)-N-hydroxy-butyramide] | 
24 | 29.9 nM |  | CC#CCOc1ccc([S+]([O-])C(CCCCNC(=O)Cc2ccc(Cl)c(Cl)c2)C(=O)NO)cc1 (stereo not shown) [Example 26, 2-(4-But-2-ynyloxy-benzenesulfinyl)-6-[2-(3,4-dichloro-phenyl)-acetylamino]-hexanoic acid hydroxyamide] | 
25 | 24.9 nM |  | CC#CCOc1ccc(SC(CCCCNC(=O)Cc2ccc(Cl)c(Cl)c2)C(=O)NO)cc1 (stereo not shown) [Example 16, 2-(4-But-2-ynyloxy-phenylsulfanyl)-6-[2-(3,4-dichloro-phenyl)-acetylamino]-hexanoic acid hydroxyamide] | 
26 | 65.1 nM |  | CC#CCOc1ccc(S(=O)(=O)C(CCCCNC(=O)C2c3ccccc3Oc3ccccc32)C(=O)NO)cc1 (stereo not shown) [Example 39, 9H-Xanthene-9-carboxylic acid [5-(4-but-2-ynyloxy-benzenesulfonyl)-5-hydroxycarbamoyl-pentyl]-amide] | 
27 | 32.1 nM |  | CC#CCOc1ccc(SC(CCCCNC(=O)CNC(=O)c2ccc3ccccc3n2)C(=O)NO)cc1 (stereo not shown) [Example 44, Quinoline-2-carboxylic acid {[5-(4-but-2-ynyloxy-phenylsulfanyl)-5-hydroxycarbamoylpentylcarbamoyl]-methyl}-amide] | 
28 | 32.8 nM |  | CC#CCOc1ccc(SC(CCCCNC(=O)Cc2csc3ccccc23)C(=O)NO)cc1 (stereo not shown) [Example 22, 6-(2-Benzo[b]thiophen-3-yl-acetylamino)-2-(4-but-2-ynyloxy-phenylsulfanyl)-hexanoic acid hydroxyamide] | 
29 | 24.9 nM |  | CC#CCOc1ccc(S(=O)(=O)C(CCCCNC(=O)Cc2csc3ccccc23)C(=O)NO)cc1 (stereo not shown) [Example 42, 6-(2-Benzo[b]thiophen-3-yl-acetylamino)-2-(4-but-2-ynyloxy-benzenesulfonyl)-hexanoic acid hydroxyamide] | 
30 | 147 nM |  | N-[5-(4-But-2-ynyloxy-benzenesulfonyl)-5-hydroxycarbamoyl-pentyl]-2-phenethyl-benzamide [Example 34] | 
31 | 24.4 nM | 4.6 µM | CC#CCOc1ccc([S+]([O-])C(CCCCNC(=O)CNC(=O)Cc2ccc(Cl)c(Cl)c2)C(=O)NO)cc1 (stereo not shown) [Example 57] | 
32 | 36.9 nM |  | CC#CCOc1ccc(SC(CCCCNC(=O)CCCc2cccs2)C(=O)NO)cc1 (stereo not shown) [Example 18, 2-(4-But-2-ynyloxy-phenylsulfanyl)-6-(4-thiophen-2-yl-butyrylamino)-hexanoic acid hydroxyamide] | 

Source: patent EP1147080B1 (Wyeth Holdings Corporation, priority 1999, dated 2000)
